Values belong to the molecule of their own block, whether it stands above or below them.
Columns and labels:
[1] = test system: Human immunodeficiency virus 1; test: Antiviral activity against HIV-1 infected in human T cell line assessed as inhibition of DNA replication; type: functional, organism-based; conditions: Human immunodeficiency virus 1, T-cell
HeLa = test: Cytotoxicity against human HeLa cells; type: functional
[2] = Binding affinity to telomeric RNA (unknown origin) assessed as dissociation constant
[3] = Inhibition of r(CCUG)12-MBNL1 (unknown origin) by gel electrophoretic mobility shift assay; parameters: species or system Homo sapiens
[4] = Binding affinity to r(CCUG)12 (unknown origin) assessed as dissociation constant
[5] = target: T1, Muscleblind-like protein 1 (Homo sapiens, UniProt Q9NR56); test: Binding affinity to MBNL1 (unknown origin) assessed as dissociation constant
T1 sequence (Q9NR56 whole entry): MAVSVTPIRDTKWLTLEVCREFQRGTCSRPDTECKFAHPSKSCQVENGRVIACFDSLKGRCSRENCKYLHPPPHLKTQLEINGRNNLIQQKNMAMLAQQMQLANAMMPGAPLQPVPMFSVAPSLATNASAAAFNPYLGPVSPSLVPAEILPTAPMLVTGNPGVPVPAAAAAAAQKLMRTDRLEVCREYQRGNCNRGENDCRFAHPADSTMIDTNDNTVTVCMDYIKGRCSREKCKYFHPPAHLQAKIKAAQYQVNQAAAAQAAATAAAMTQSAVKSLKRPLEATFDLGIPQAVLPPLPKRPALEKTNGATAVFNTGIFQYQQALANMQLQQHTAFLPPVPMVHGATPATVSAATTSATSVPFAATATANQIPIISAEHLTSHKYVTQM

[6] = target: T2, Microtubule-associated protein tau (Homo sapiens, UniProt P10636); test: Binding affinity to tau (unknown origin)
[7] = target: Microtubule-associated protein tau (Rattus norvegicus) (UniProt P19332); test: Inhibition of tau in rat Primary cortical neuron cell assessed as reduction in 4R/3R ratio; type: cell-based; conditions: concentration not given here
[8] = target: T2, Microtubule-associated protein tau; test: Inhibition of tau in human LA-N-5 cells assessed as reduction in 4R/3R ratio; type: cell-based; conditions: concentration not given here
[9] = target: T2, Microtubule-associated protein tau; test: Inhibition of tau (unknown origin)
[10] = Effect on tau protein expression in human SH-SY5Y cells; type: functional, cell-based
[11] = Downregulation of alpha-Synuclein level in human SH-SY5Y cells at 1 uM relative to control; type: functional
[12] = Binding affinity to HIV-1 mRNA assessed as dissociation constant; parameters: species or system Human immunodeficiency virus 1
[13] = test system: Human immunodeficiency virus 1; test: Antiviral activity against HIV-1; type: functional, organism-based
MDA-MB-231 = test: Inhibition of Precursor microRNA-210 in human MDA-MB-231 cells at 200 nM relative to control; type: cell-based
[14] = Binding affinity to Precursor microRNA-210 (unknown origin) assessed as dissociation constant
U-251 = test: Induction of apoptosis in human U-251 cells at 100 uM; type: functional
MCF7 = test: Induction of apoptosis in human MCF7 cells at 100 uM; type: functional
Escherichia coli [15] = test: Antibacterial activity against Escherichia coli MB5746; type: functional, organism-based
Escherichia coli [16] = test: In vivo antibacterial activity against Escherichia coli MB5746 infected in DBA/2J mouse assessed as log 10 reduction in CFU in spleen at 60 mg/kg, sc administered every 3 hrs for 24 hrs (reference value: 9.53 log10 CFU); type: functional
Escherichia coli [17] = test: In vivo antibacterial activity against Escherichia coli MB5746 infected in DBA/2J mouse assessed as log 10 reduction in CFU in spleen at 120 mg/kg, sc administered every 3 hrs for 24 hrs (reference value: 9.53 log10 CFU); type: functional
[18] = Binding affinity to Precursor microRNA-515 (unknown origin) assessed as dissociation constant

T2 sequence (P10636 whole entry): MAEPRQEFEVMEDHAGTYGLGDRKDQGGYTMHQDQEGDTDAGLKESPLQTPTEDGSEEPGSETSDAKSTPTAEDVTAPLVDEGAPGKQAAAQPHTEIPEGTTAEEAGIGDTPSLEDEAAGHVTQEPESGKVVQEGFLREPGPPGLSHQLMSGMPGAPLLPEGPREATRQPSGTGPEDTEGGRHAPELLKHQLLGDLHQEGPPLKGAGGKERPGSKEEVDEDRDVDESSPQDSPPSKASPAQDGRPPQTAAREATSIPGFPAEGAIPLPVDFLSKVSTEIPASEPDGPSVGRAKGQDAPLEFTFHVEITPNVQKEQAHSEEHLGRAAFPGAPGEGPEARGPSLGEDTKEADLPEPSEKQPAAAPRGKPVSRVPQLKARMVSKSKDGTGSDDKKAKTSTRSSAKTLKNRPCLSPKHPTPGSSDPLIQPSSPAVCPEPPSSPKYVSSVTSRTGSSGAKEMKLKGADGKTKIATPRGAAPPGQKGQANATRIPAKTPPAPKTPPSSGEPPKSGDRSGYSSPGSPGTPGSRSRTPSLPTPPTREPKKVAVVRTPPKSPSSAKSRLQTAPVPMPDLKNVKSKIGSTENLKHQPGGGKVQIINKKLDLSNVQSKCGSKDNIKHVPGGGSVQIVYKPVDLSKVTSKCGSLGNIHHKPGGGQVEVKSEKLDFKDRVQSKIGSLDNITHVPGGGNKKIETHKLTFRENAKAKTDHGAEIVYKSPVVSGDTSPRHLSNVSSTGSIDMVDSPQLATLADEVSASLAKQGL
Microtubule-associated protein tau (Rattus norvegicus), sequence (P19332 whole entry): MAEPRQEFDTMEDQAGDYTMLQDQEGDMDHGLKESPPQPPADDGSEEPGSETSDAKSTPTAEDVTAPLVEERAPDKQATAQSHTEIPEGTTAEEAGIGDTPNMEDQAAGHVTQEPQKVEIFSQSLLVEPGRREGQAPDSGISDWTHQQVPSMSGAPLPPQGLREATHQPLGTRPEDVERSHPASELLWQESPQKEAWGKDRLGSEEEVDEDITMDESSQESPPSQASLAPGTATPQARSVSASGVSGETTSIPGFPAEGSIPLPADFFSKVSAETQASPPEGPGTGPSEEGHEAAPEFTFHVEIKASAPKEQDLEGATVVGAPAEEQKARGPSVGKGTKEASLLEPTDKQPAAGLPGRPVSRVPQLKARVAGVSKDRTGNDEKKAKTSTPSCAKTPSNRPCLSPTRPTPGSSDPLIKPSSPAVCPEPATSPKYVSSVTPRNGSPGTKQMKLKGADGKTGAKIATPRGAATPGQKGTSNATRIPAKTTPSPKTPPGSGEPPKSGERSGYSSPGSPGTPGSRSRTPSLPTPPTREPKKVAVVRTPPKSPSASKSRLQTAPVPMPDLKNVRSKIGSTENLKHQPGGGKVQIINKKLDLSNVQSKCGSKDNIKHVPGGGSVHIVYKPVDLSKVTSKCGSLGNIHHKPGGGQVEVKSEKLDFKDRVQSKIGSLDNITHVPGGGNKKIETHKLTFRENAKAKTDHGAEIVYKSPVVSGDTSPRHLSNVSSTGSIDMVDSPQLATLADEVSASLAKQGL

Compound: O=C1c2c(O)ccc(O)c2C(=O)c2c(NCCNCCO)ccc(NCCNCCO)c21 [MITOXANTRONE]
IC50 [1]: 23100 nM
Activity (HeLa): 1 µM

Kd [2]: 5900 nM
Compound: O=c1c2cc(-c3ccco3)sc2nc2n1Cc1nc3sc(-c4ccco4)cc3c(=O)n1C2

IC50 [3]: 115000 nM
Kd [4]: 8000 nM
Kd [5]: > 200000 nM
Compound: N=C(NCCCCNc1nc(N)nc(N)n1)c1ccc(C(=N)NCCCCNc2nc(N)nc(N)n2)cc1

Kd [6]: 4900 nM
inhibition [7]: 50%
inhibition [8]: 40%
IC50 [9]: 2100 nM
Compound: COc1ccc2[nH]c3c(c2c1)N=CN(CCCN(C)C1CCCCC1)C3

EC50 [10]: 57.2 nM
Compound: N=C(N)NC[C@H]1O[C@H](O[C@@H]2[C@@H](OCCSSCCNCCNc3ccc(NCCNCCO)c4c3C(=O)c3ccccc3C4=O)[C@H](O)[C@@H](NC(=N)N)C[C@H]2NC(=N)N)[C@H](NC(=N)N)[C@@H](O)[C@@H]1O

Compound: N=C(N)c1ccc(Nc2ccc(-c3cc4ccc(C(=N)N)cc4[nH]3)cc2)cc1
Activity [11]: 67%

Kd [12]: 110 nM
IC50 [13]: 410 nM
Compound: CC(=O)Nc1nc(CC(=O)c2cccc(NC(=O)[C@@H](N)CCCCNC(=N)N)c2)cs1

Kd [14]: 340 nM
Compound: CN1CCN(c2ccc3nc(-c4ccc(OCCCC(=O)NCCCOCC(O)COP(=O)(O)O[C@@H]5[C@H](O)[C@@H](COP(=O)(O)O[C@@H]6[C@H](O)[C@@H](COP(=O)(O)O[C@@H]7[C@H](O)[C@@H](COP(=O)(O)O[C@@H]8[C@H](O)[C@@H](COP(=O)(O)O)O[C@H]8n8cnc9c(N)ncnc98)O[C@H]7n7cnc8c(N)ncnc87)O[C@H]6n6cnc7c(N)ncnc76)O[C@H]5n5cnc6c(N)ncnc65)cc4)[nH]c3c2)CC1 (some centres not stated)
inhibition (MDA-MB-231): 50%

Compound: NC(=O)c1ncn2c(=O)n(NC(=O)c3nc4c(N)cccc4[nH]3)nnc12
Activity (U-251): 30%
Activity (MCF7): 30%

IC50 (Escherichia coli [15]): 300 nM
Compound: CNc1ncc(CN2CCCC(c3nc(O)cc(-c4cccs4)n3)C2)cn1 (configuration not stated)
Activity (Escherichia coli [16]): 7.76 log10CFU/g
Activity (Escherichia coli [17]): 6.24 log10CFU/g

Kd [18]: 60 nM
Compound: CCCN(CC(=O)N(CCC)CC(=O)N(CCC)CC(=O)N(CCC)CC(=O)N(CC(N)=O)Cc1cn(CCCNC(=O)CCCOc2c(C(C)(C)C)cc(-c3nc4ccc(-c5ccc(N6CCN(C)CC6)cc5)cc4[nH]3)cc2C(C)(C)C)nn1)C(=O)CNCc1cn(CCCNC(=O)CCCOc2c(C(C)(C)C)cc(-c3nc4ccc(-c5ccc(N6CCN(C)CC6)cc5)cc4[nH]3)cc2C(C)(C)C)nn1

From ChEMBL document CHEMBL5226309, “Synthetic RNA Modulators in Drug Discovery” (J Med Chem, 2021)
